Results on 4 compounds are retold here after patent publication US20060275510A1, “Formulations for menopausal syndromes” (Hong Kong Jockey Club Institute of Chinese Medicine Limited, priority 2005, published 2006).

Holding throughout (assay type): in vivo
Assay [1] has as its system KM mice. Put plainly: Step-down test on normal mice (scopolamine). To be noted: n = 10 mice, oral 14 days: Composition I 14 g (crude herb)/kg/d, Huperzine A 1.5 ug/kg/d. From the text: A step-down recorder, comprising a platform and a copper floor, is provided. The mice were placed on the copper floor. When the cooper floor is electrified, the normal reaction of the mice is to jump up to the platform to avoid the electric shock. After a period of time, the mice may forget about the shock and jump back to the floor. This jumping back to the floor is an “error reaction”. The mice that jump back to the floor received electric shock again and would jump back to the platform again. The duration between the first jump up (to the platform) and back (to the floor) is called the “latency period”. The number of jumping backs (error reactions) in a certain period of time could serve as an indicator of the memory of the mice.
Based on the Principle, agents that are able to reduce the error reactions of mice in a certain period of time and […] the latent period are deemed effective in memory improvement. Xu S Y. (1991), Chen Q. (1996), Zhang J T. (1998),Yang J, Wang J, et al. (2000).
Code: YLS-2 T, purchased from Facility station of Shandong Academy of Medical Science Method:
Thirty normal female mice were randomized into 3 groups of 10: negative control, positive control (Huperzine A) and the test group. Mice in the three groups received respective drugs and doses orally as indicated above, once per day for consecutive 14 days. An hour after the last administration, all the mice were administrated with 2 mg/kg scopolamine intraperitoneally. 30 minutes later, the mice were placed in the step down recorder for 5 minutes for pre-adaptation. After the pre-adaptation, the copper floor was electrified for 5 minutes. The number of electric shocks each mouse received in the 5 minutes was recorded. After 24 hours, the test was conducted again.
The number of shocked mice, the latency period of each mouse, and the average number of error reactions in 3 minutes were recorded.

For assay [2], the system named is KM mice. Put plainly: Step through test on normal mice (ethanol-induced memory impairment). To be noted: oral 14 days: Composition I 14 g (crude herb)/kg/day, Huperzine A 1.5 ug/kg/day. An excerpt:
A Step Through Test Box for Mouse with a light room and a dark room inside is provided. The mice are placed in the light room with their back facing the door. When the mice come out from the light room and enter the dark room, they get shocked, such behavior is called an error reaction. The first duration before an error reaction occurs after a mouse is placed in the box is called the latency period. Mice bearing better memories have longer latency period and commit less error reactions in a certain period of time.
Agents that are able to increase the latency period and reduce error reactions of mice in the Step Through Test Box are deemed effective in improving the memory of animals. Reference: Xu S Y (1991), Chen Q (1996), Zhang J T. (1998), Yang J, Want J. et al (2000), and Zhu X D and Tang X C.
Animals: KM mice, female, 18-20 g, purchased from Shanghai Experimental Animal Center of the Chinese Academy of Sciences.
Thirty normal female mice weighed between 18-20 g were randomized into 3 groups of 10: negative control, positive control (Huperzine A) and the test group. The mice were administered orally with the above-indicated doses and drugs, once a day for 14 days. An hour after the last administration (day 14), all the mice were orally given 45% ethanol (0.1 ml/10 g). 30 minutes later, the mice were placed in the light room of the test box with their back facing the door. When the mice entered the dark room and got shocked, the latency period was recorded (the 1st latency period). The test was conducted again 24 hours later, wherein the number of mice entering the dark room (error reaction) and the latency period (the 2nd latency period) were recorded.

Assay [3] concerns pentobarbital sodium-injected mice. Description: Sleeping test (pentobarbital sodium-induced sleep). To be noted: female KM mice; oral; Composition I 56 g (crude herb)/kg/d 14 days, Diazepam 0.5 mg/kg once on day 14; pentobarbital sodium 35 mg/kg i.p. 1 h after last dose. As to the method: According to Xu S Y. (1991 ), Chen Q. (1996 ), Zhang J T. (1998 ), Zhu X D. and Tang X C. (1998 ), an agent is deemed to have sedative and hypnotic effects if it can prolong the duration of the sleep, as indicated by the disappearance of right reflex, of pentobarbital sodium-injected mice
Drug, dose, and the administration formulation: • For negative control group: 0.9% saline. • For positive control group: Diazepam, purchased from BangNing Pharmaceutical Co. Ltd. The dose was 0.5 mg/kg weight/d. […] The dose was 56 g (crude herb)/kg weight/d. […] Method:
Thirty normal female mice weighed between 18-20 g were randomized into 3 groups of 10: the negative control group, the positive control group, and the test group. For the negative control and testing group, the drugs were administered to the mice orally with the doses and formulations indicated, once per day for consecutive 14 days. For the positive control group, the drug was given on the day fourteen orally. One hour after the last administrations, all mice were injected with 35 mg/kg of pentobarbital sodium intraperitoneally. The duration of the disappearance of righting reflex was observed and recorded. According to Zhang J T. (1998 ), the duration of the disappearance of righting reflex equals to the sleeping time.

Assay [4] deals with KM mice. Description: Open field test (spontaneous activity). To be noted: female KM mice; oral; Composition I 14 g (crude herb)/kg/d 14 days, Diazepam 1.0 mg/kg once on day 14.
Method: KM mice, females, weighed between 18-20 g, purchased from Shanghai Experimental Animal Center, the Chinese Academy of Sciences.
• Multi-functional Auto-Motion Recorder for Mouse/Rat: manufactured by Facility Station of Shandong Academy of Medical Science. Product code: YLS-1B.
Drug, dose, and the administration formulation: • For negative control group: 0.9% saline. • For positive control group: Diazepam as described above. The dose was 1.0 mg/kg weight/d. […] The dose was 14 g (crude herb)/kg weight/d. […] Method:
Thirty normal female mice weighed between 18-20 g were randomized into 3 groups of 10: negative control, positive control and the test group. For the negative control and testing group, the drugs were administered to the mice orally with the doses and formulations described above, once per day for consecutive 14 days. For the positive control group, the drug was given on the day fourteen orally. One hour after the last administration, the mice were individually placed into a box with infrared detection light to record their spontaneous activities in 3 minutes.
Assay [5] deals with normal female mice. Put plainly: Dark-light box test on normal mice. The following applies: within 10 minutes, oral, Composition I 56 g (crude herb)/kg/d 14 days, Diazepam 1.0 mg/kg once on day 14, 1 h after last dose. The protocol:
In the experiment, mice were placed in Shimada light and dark box. The times of mice shuttling between the boxes and the duration of mice staying in the dark/light box were recorded.
• Shimada light and dark box: size: 40 cm×40 cm×12 cm, having a light box (20 cm×20 cm×12 cm) at the center, and two dark boxes (10 cm×10 cm×12 cm) at two diagonal corners. Two L-shaped tracks are connected to two sides of each dark box. Manufacturer: Shanghai Institute of Pharmaceutical Industry. Animals:
Thirty normal female mice weighed between 18-20 g were randomized into 3 groups of 10: negative control, positive control (Diazepam) and the test group. The mice in the negative and test groups were administered orally with respective drugs and doses as indicated above, once a day for consecutive 14 days. The mice in the positive control group received only one dose orally as indicated above on day fourteen. 1 hour after the last administration on day fourteen, all the mice were placed in the Shimada light and dark box.

In assay [6] the test system is ovariectomized mice. Description: Dark-light box test on ovariectomized mice. To be noted: within 10 minutes, oral, Composition I 14 g (crude herb)/kg/d 14 days, Diazepam 1.0 mg/kg once on day 14, 1 h after last dose. As to the method: The same experiment of Example 5 was conducted on ovariectomized mice. […] See Xu S Y. (1991), Chen Q. (1996), Zhang J T. (1998).
Apparatus: Same as Example 5.
Animals: Same as Example 5.
Negative control group: 0.9% saline,
Positive control group: Diazepam, 1.0 mg/kg weight
Thirty female mice were anaesthetized by intraperitoneal injection with 35 mg/kg Pentobarbital Sodium. Two cuts were made on the back of the rats, each cut being 1.5 cm from the spine. The two ovaries were taken from the two cuts, respectively. The cuts were then sealed. 1 week after the ovariectomization, the 30 mice were randomly divided into 3 groups, and the same administration procedures as Example 5 were followed, using drugs and doses specified above. 1 hour after the last administration on day fourteen, all the mice were placed in the Shimada light and dark box.

The subject of assay [7] is ovariectomized rats. Put plainly: Elevated plus-maze test on ovariectomized rats. To be noted: oral, Composition I 14 g (crude herb)/kg/d 14 days, Diazepam 0.5 mg/kg once on day 14, 1 h after last dose.
Method: SD rats, female, weighed 230-250 g, purchased from Shanghai Experimental Animal Center, the Chinese Academy of Sciences.
• For negative control group: 0.9% saline. • For positive control group: Diazepam as described above. The dose was 0.5 mg/kg weight. • For test group: Composition as prepared in Experiment 1. The dose was 14 g (crude herb)/kg weight/d. Method:
Thirty female rats were divided into the above-mentioned 3 groups randomly and were anaesthetized by intraperitoneal injection with 60 mg/kg Pentobarbital Sodium. Two cuts were made on the back of the rats, each cut being 1.5 cm from the spine. The two ovaries were taken from the two cuts, respectively. The cuts were then sealed. The drug administration began 1 week after the ovariectomization. […] The rats in the positive control group received Diazepam orally only once on day fourteen. 1 hour after the last administration, the rats were placed in a maze.
The test system of assay [8] is ovariectomized rats. Put plainly: Serum estrogen and progesterone levels (RIA), uterus weight and visceral index in ovariectomized rats. To be noted: ovariectomized SD rats, 28 days once daily, n = 6. The protocol: Female hormone stimulates estrogen in overiectomized female mice/rats.
SD rats, female, weighted between 220-250 g before administration, purchased from Shanghai Sino-British Sippr/BK LAB Animal Ltd., randomly split into 5 groups.
• Negative control group: 0.9% saline • Positive control group: • 1. Estradiol Benzoate, purchased from Shanghai No. 9 Pharmaceutical Ltd. Dose: 0.01 mg/kg weight/day • 2. ZuoGuiWan, purchased from Shanghai Leiyunshang Fengbang Pharmaceutical Co., Ltd. • 3. GengNianAn, purchased from Zhongxin Pharmacy Tianjin Leren Tang Pharmaceutical Factory. […] Dose: 1.0 ml/100 g weight/day • Positive control group: • 1. Estradiol Benzoate, Dose: […] dissolved in peanut oil (0.01 mg/ml). • 2. ZuoGuiWan, Dose: 7 g/kg weight/day dissolved in 0.5% CMC—Na, • 3. GengNianAn, Dose: 6 g/kg weight/day dissolved in 0.5% CMC—Na, • 5.
Thirty ovariectomized female SD rats weighed between 220.0-250.0 g were randomized into 5 groups: the negative control group, the positive control group, comprising 1. Estradiol Benzoate group, 2. ZuoGuiWan group, 3. GengNianAn group, and the test group. The rats in the negative control, ZuoGuiWan, GengNianAn and the test groups received respective drug and dose as indicated intragastrically. The rats in Estradiol Benzoate were injected with estradiol at the above-indicated dose. All rats received administration once everyday for consecutive 28 days. During the 28 days, a daily pap smear was performed before drug administration. Twenty-four hours after the last administration, all of the rats were weighed, anesthetized, blood withdrawn and killed. The uterus was then removed and half of the uterus was weight in wet. The other half of the uterus was dried for 8 hours in an oven for the measurement of dried weight. The serum estrogen and progesterone levels were determined using radioimmunoassay (RIA) method.

Assay [9] concerns ovariectomized hamsters. Description: Ferric Reducing Ability of Plasma (FRAP) in ovariectomized hamsters. The following applies: Positive control. An excerpt: The higher the anti-oxidation level, the more Fe^2+ ions are reduced from Fe^3+ ions. See Benzie I F and Szeto Y T (1999).
47 female hamsters, weighed about 100 g, bred at the Laboratory Animal Services Center (LASEC) of the Chinese University of Hong Kong, were randomly divided into 6 groups.
Apparatus: • UV-visible spectrophometer: manufacturer Shimadzu, product code: UV-1601
Method: 47 female hamsters weighed 100 g were divided into 6 groups, including three test groups 1, 2, and 3, the positive control group 4, the negative control group 5, and the sham operated group 6.
The hamsters in groups 1-5 were ovariectomized. A month afterwards, the hamsters in groups 1-6 were administered intragastrically with the drugs and doses indicated above, once every day for consecutive 4 weeks. After 4 weeks of administration, blood samples were obtained from the orbital venous sinus, and were subjected to centrifugation at 10,000 rpm for 10 minutes to collect serum. 10 μl of serum was diluted with 490 μl double distilled water. 300 μl freshly prepared FRAP reagent was then added to initiate the reaction. The samples were placed under 593 nm to observe the changes of absorbance during the first 10 minutes of the reduction of Fe^3+ to Fe^2+. The increase in absorbance is an indicator of the level of reduction. The Ferric Reducing Ability of Plasma (FRAP) values were determined as follows: […]

In assay [10] the test system is ovariectomized hamsters. Description: Serum [non-HDL]/[HDL] ratio and kidney cholesterol in ovariectomized hamsters. The following applies: Positive control, 17β Estradiol 21 day release 0.5 mg/pellet.
Method: Animals: hamsters, female, weighed 100 g, bred at the Laboratory Animal Services Center (LASEC) of the Chinese University of Hong Kong, randomly divided into 6 groups.
Dose: 0.5 mg/pellet, catalogue no.: E121 • The sham operated group: hamsters received the operation but not ovariectomy. Method:
47 hamsters weighed 100 g were divided into 6 groups including the positive group, negative group, sham operated and 3 dosage groups (low, medium and high). All hamsters except those in the sham operated group received ovariectomy. A month after the ovariectomy operation, all hamsters were administered intragastrically with drugs and doses indicated above, once a day for consecutive 4 weeks. […] The non-HDL/HDL ratio in serum was analyzed according to See Ho K K W, Leung L K, Chan F L, Huang Y, Chen Z Y (2003).
The hamsters received administration intragastrically for another 4 weeks prior to killing by nitrogen narcosis. The cholesterol level in kidney was measured by gas chromatography.
300 mg of the kidney and 1 mg of the internal standard (IS), stigniastanol (Sigma, S-4297) was homogenized using Polytron homogenizer in 15 ml chloroform-methanol (2:1, v/v) and 3 ml 0.9% saline. […] The TMS-ether derivative was analyzed in a fused silica capillary column (SAC™-5, 30 m×0.25 mm, i.d.; Supelco, Inc., Bellefonte, Pa., USA) in a Shimadzu GC 14B GLC equipped with a flame-ionization detector (Shimadzu). […]
The mark [11] stands for this setting: 5 minutes pre-adaptation (first test), scopolamine 2 mg/kg i.p.
Where [12] appears, read: 24 hours after scopolamine administration.
Where [13] appears, read: The second test (24 h later), 45% ethanol.
The mark [14] stands for this setting: Composition I 7 g (crude herb)/kg/day i.g., ZuoGuiWan 7 g/kg/day, GengNianAn 6 g/kg/day, Estradiol Benzoate 0.01 mg/kg/day injected.

Regarding `C/C=C1\[C@H]2C=C(C)C[C@]1(N)c1ccc(=O)[nH]c1C2` [Huperzine A], in assay [1] (setting [11]), the “Number of shocks per mouse” value stood at 5.7 ± 2.7 and the “Total number of shocks” value is reported as 51. Besides, in [1] (setting [12]), the “First step down latency period” value worked out at 200.6 ± 137.2 s, the “Number of error reactions in 3 minutes” value was found to be 8 and the “Number of shocked mice” value is listed as 5. Besides, the “The 1st latency period” value in [2] (The first test, 45% ethanol 0.1 ml/10 g orally) is given as 19.3 ± 16.16. In assay [2] (setting [13]), the “No. of error reactions” value stood at 1.4 ± 2.0 and the “The 2nd latency period” value came to 196.2 ± 121.9.

For `CN1C(=O)CN=C(c2ccccc2)c2cc(Cl)ccc21` [Diazepam], in assay [3], the “Sleeping Time” value stood at 2927.8 ± 1061.2 s. Also, in [4], the “Locomotion times during the 3 minutes, 1 hour after drug” value is on record as 61.0 ± 11.6 and the “Locomotion times during the 3 minutes, 3 hour after drug” value stood at 46.2 ± 11.3. In addition, in assay [5], the “Shuttle Time” value is given as 76.1 ± 8.90 and the “Time spent in dark box” value was 166.6 ± 45.05. Besides, in assay [6], the “Shuttle Time” value is 20.5 ± 10.7 (p = 0.874) and the “Time spent in dark box” value is recorded as 47.4 ± 31.9. In assay [7], the “Time spent in open arm × 100% / Time spent in both arms” value is reported as 6 ± 7% and the “Times of entering open arm × 100% / Times of entering both arms” value came to 12 ± 11%.

On to `C[C@]12CC[C@@H]3c4ccc(OC(=O)c5ccccc5)cc4CC[C@H]3[C@@H]1CC[C@@H]2O` [Estradiol Benzoate], for which, in [8] (setting [14]), the “Serum Estrogen” value turned out to be 33.00 ± 21.76 ng/mL and the “Serum Progesterone” value stood at 25.85 ± 6.15 ng/mL. Besides, in [8] (doses as for serum levels), the “Visceral Index” value is listed as 0.246 ± 0.030 g/100 g BW and the “Wet weight of uterus” value was 0.597 ± 0.064 g.

As for `C[C@]12CC[C@@H]3c4ccc(O)cc4CC[C@H]3[C@@H]1CC[C@@H]2O` [17β Estradiol], the “Percentage of FRAP value remained after 4 weeks of treatment” value in assay [9] is 88.32 ± 21.06 (p = 0.17) %. Also, in assay [10], the Kidney cholesterol is reported as 3.5 ± 0.4 mg/g.
